Each structure is given as a SMILES string. Where two headings read alike, the source gives them in different places. Some results are limits rather than exact numbers.

In data set [1] the test system is female adult Kanzawa spider mites. The experiment in a line: whole plant or invertebrate. Type of data set: in vivo. The conditions noted are these: Tetranychus kanzawai, in Phaseolus vulgaris, 48 h, read-out: mortality of the female adult Kanzawa spider mites. As to the method:
A kidney bean leaf (3.5 cm×4.5 cm) was placed with the rear side up on the sufficiently soaked non-woven fabric. Thereafter, 20 female adult Kanzawa spider mites were released on the kidney bean leaf on the cup. […] The mortality of the female adult Kanzawa spider mites was determined two days after the spraying.

The subject of data set [2] is female adult citrus red mites. As to the kind of experiment: whole plant or invertebrate. Type of data set: in vivo. The following applies: Panonychus citri, in Citrus x aurantium, 48 h, read-out: mortality of the female adult citrus red mites. How it is done: Thereafter, 10 female adult citrus red mites were released on the Citrus aurantium leaf on the cup. The next day, a miticidal formulation containing a compound of the invention (100 ppm) was prepared by adding an aqueous solution of Sorpol 355 (manufactured by Toho Kagagu Co., Ltd.) to an acetone solution containing the compound of the invention. […] The mortality of the female adult citrus red mites was determined two days after the spraying.

Data set [3] has as its system Two-spotted spider mites (eggs). As to the kind of experiment: Ovicidal test on two-spotted spider mites (Test Example 2). It is filed as in vivo, Tetranychus urticae. The conditions noted are these: 500 ppm sprayed on kidney bean leaf; six days after the spraying. As to the method: A kidney bean leaf (about 3.5×4.5 cm) was placed on the sufficiently soaked non-woven fabric. Female adult two-spotted spider mites (about 5 mites) were released on the leaf, and the leaf was placed in a thermostatic chamber (25±2° C., 16L8D). […] The ovicidal rate of the two-spotted spider mites was determined six days after the spraying.

Data set [4] deals with Two-spotted spider mites. As to the kind of experiment: whole plant or invertebrate. It is filed as in vivo. The conditions noted are these: Tetranychus urticae, in Phaseolus vulgaris, 48 h, read-out: mortality of the two-spotted spider mites, 500 ppm sprayed on kidney bean leaf; two days after the spraying. How it is done: A kidney bean leaf (about 3.5×4.5 cm) was placed on the sufficiently soaked non-woven fabric. Two-spotted spider mites (about twenty mites) were released on the leaf, and the leaf was placed in a thermostatic chamber (25±2° C., 16L8D). The next day, a miticidal formulation containing a compound of the invention (500 ppm) was prepared by adding an aqueous solution of Sorpol 355 (manufactured by Toho Kagagu Co., Ltd.) (100 ppm) to an acetone solution containing the compound of the invention. […] The mortality of the two-spotted spider mites was determined two days after the spraying.

For data set [5], the system named is citrus rust mites. The following applies: sprayed on Citrus aurantium leaf. An excerpt:
A plastic cup (trade name: KP-120, manufactured by Konoike Plastic Co., Ltd., Iwata) was filled with tap water, and covered with a lid having a notch cut therein. A piece (4.5×5.5 cm) of non-woven fabric having a slit of about 4 cm in length, the slit being made parallel to the longer side of the fabric at a distance of 1 cm from the edge, was placed on the lid. The 4-cm long, 1-cm wide portion of the fabric was suspended inside the plastic cup through the notch. A Citrus aurantium leaf (3 cm×3 cm) was placed with the front side up on the sufficiently soaked non-woven fabric. To prevent drying and escape of mites, the leaf was covered with a filter paper (diameter: 5 cm, No. 2, Advantec Toyo Kaisha, Ltd.) having two holes of 10 mm in diameter. A leaf on which the citrus rust mites were bred was cut out into pieces with a cork borer (diameter: 2 mm), and the leaf pieces were placed with the front side up on the Citrus aurantium leaf on the non-woven fabric. The next day, the dry leaf pieces were removed. […] Subsequently, 4 ml of a miticidal formulation containing a test compound (100 ppm or 200 ppm), which was prepared according to Test Example 1, was sprayed over the leaf with a spray gun (PB-308 Piece Bon, Olympos, Osaka; 1 kgf/cm^2). […] The mortality of the citrus rust mites was determined two days after the spraying. […]

A word on the mortality: it is the share of the test organisms that died. On to `C[C@@H]1CN(c2ccc(C(F)(F)F)cn2)CC[C@H]1Oc1cc(-c2cc(F)cc(F)c2)nn1CC1OCCO1` (relative stereo) [1a-301, trans-4-[1-(1,3-dioxolan-2-yl)methyl-3-(3,5-difluorophenyl)pyrazol-5-yloxy]-3-methyl-1-[5-(trifluoromethyl)-2-pyridyl]-piperidine], for which the mortality at 100 ppm in data set [1] and in data set [2] was 100% in each case.

As for `FC(F)(F)CCCn1nc(OC2CCN(c3ccc(C(F)(F)F)cn3)CC2)cc1C(F)(F)F` [1b-49], the “ovicidal rate of the two-spotted spider mites” value (“ovicidal rate” below) in data set [3] is reported as 100%. One may read the melting point as the temperature, or range, at which the solid turns liquid. With `CCCCn1nc(C(F)(F)F)cc1S(=O)(=O)C1CCN(c2ccc(C(F)(F)F)cn2)CC1` [1a-218, 4-[1-butyl-3-(trifluoromethyl)pyrazol-5-ylsulfonyl]-1-[5-(trifluoromethyl)-2-pyridyl]-piperidine], the melting point is 105.3 to 105.6 °C. `COC(Cn1nc(O[C@@H]2[C@@H]3CC[C@H]2CN(c2ccc(C(F)(F)F)cn2)C3)cc1C(F)(F)F)OC` [1b-52, 8β-[1-(2,2-dimethoxy)ethyl-5-(trifluoromethyl)pyrazol-3-yloxy]-1-[5-(trifluoromethyl)-2-pyridyl]-3-azabicyclo[3.2.1]octane]: in data set [4], the mortality at 500 ppm was at least 50%. In turn, `FC(F)(F)c1ccc(N2CCC(Oc3cc(C(F)(F)F)n[nH]3)CC2)nc1` [1a-245, 4-[3-(trifluoromethyl)pyrazol-5-yloxy]-1-[5-(trifluoromethyl)-2-pyridyl]-piperidine] displayed a melting point of 133.8 to 134.5 °C.

With `CCOC(=O)n1nc(C(F)(F)F)cc1OC1CCN(c2ccc(C(F)(F)F)cn2)CC1` [1a-288, 4-[1-ethoxycarbonyl-3-(trifluoromethyl)pyrazol-5-yloxy]-1-[5-(trifluoromethyl)-2-pyridyl]-piperidine], the mortality at 500 ppm in data set [4] is at least 50%. As for `CCCCn1nc(-c2cc(Cl)ncc2Cl)cc1OC1CCN(c2ccc(C(F)(F)F)cn2)CC1` [1a-249], in data set [3], the “ovicidal rate” value came to 100%.

Consider `CCCCn1nc(-c2ccc(F)cc2)cc1OC1CCN(c2ccc(C(F)(F)F)cn2)CC1` [1a-236], for which the “ovicidal rate” value in data set [3] was found to be 100%. Take `FC(F)(F)c1ccc(N2CCC(Oc3cc(C(F)(F)F)nn3-c3cccc(Cl)c3)CC2)nc1` [1a-62, 4-[1-(3-chlorophenyl)-3-(trifluoromethyl)pyrazol-5-yloxy]-1-[5-(trifluoromethyl)-2-pyridyl]-piperidine]: the mortality at 100 ppm in data set [2] was 100%. As to `Cn1nc(C(F)(F)F)cc1OC1CCN(c2ccc(C(F)(F)F)cn2)CC1(C)C` (centres unmarked) [1a-215, 3,3-dimethyl-4-[1-methyl-3-(trifluoromethyl)pyrazol-5-yloxy]-1-[5-(trifluoromethyl)-2-pyridyl]-piperidine], the melting point was 102.5 to 103 °C. As for `CCCCn1nc(C(F)(F)F)cc1OC1CCN(c2ccc(C(F)(F)F)cn2)CC1` [1a-17, 4-[1-butyl-3-(trifluoromethyl)pyrazol-5-yloxy]-1-[5-(trifluoromethyl)-2-pyridyl]-piperidine], in data set [1], the mortality at 100 ppm was 100%. The compound `Cn1nc(-c2cc(Cl)cc(Cl)c2)cc1OC1CCN(c2ccc(C(F)(F)F)cn2)CC1` [1a-107, 4-[3-(3,5-dichlorophenyl)-1-methylpyrazol-5-yloxy]-1-[5-(trifluoromethyl)-2-pyridyl]-piperidine] gave a melting point of 161.8 to 162.4 °C. Consider `Cc1ccc(-n2nc(C(F)(F)F)cc2OC2CCN(c3ccc(C(F)(F)F)cn3)CC2)nc1` [1a-247], for which, in data set [3], the “ovicidal rate” value amounted to 100%. Regarding `CC(C)(C)n1nc(C(F)(F)F)cc1OC1CCN(c2ccc(C(F)(F)F)cn2)CC1` [1a-26], the “Insect mortality (%)” value in data set [5] (100 ppm test compound) is reported as 100%; in data set [5] (200 ppm test compound) it was 67%. With `C[C@@H]1CN(c2ccc(C(F)(F)F)cn2)CC[C@H]1Oc1cc(-c2cc(F)cc(F)c2)n[nH]1` (relative stereo) [1a-296, trans-4-[3-(3,5-difluorophenyl)pyrazol-5-yloxy]-3-methyl-1-[5-(trifluoromethyl)-2-pyridyl]-piperidine], the melting point was 136.9 to 137.6 °C.

For the origin of these results see patent US7994094B2, “N-pyridylpiperidine compound, method for producing the same, and pest control agent” (Otsuka Agritechno Co., Ltd., priority 2006, dated 2011).
